What was measured:
Format in all cases: cell-based, mouse
[1] = test system: EC d4 (endothelial progenitor cells); experiment: RT-qPCR mRNA expression; details: for Ccl2 mRNA / Icam-1 mRNA / Vcam-1 mRNA / eNos mRNA / iNos mRNA: Fig 8D; for Cdkn1a mRNA / Cdkn2a mRNA / Glb1 mRNA / Il6 mRNA / Il8 mRNA / Tp53 mRNA: Fig 7B
Method: Total RNA was purified using the RNeasy Mini Kit (Qiagen, Hilden, Germany). Reverse transcriptase (RT) reaction was performed with the HighCapacity cDNA Reverse Transcription Kit (Applied Biosystems, Darmstadt, Germany) using 900–2000 ng of RNA. Quantitative RT-qPCR analysis was performed using following conditions: (1) 95 °C–10 min; (2) 45 amplification cycles with 95 °C–15 s, 55 °C–15 s, and 72 °C–17 s; (3) 95 °C–1 min, 55 °C–1 min, 65 °C–5 s. If not stated otherwise, analyses were performed in technical triplicates using pooled samples from two independent experiments (each performed with biological duplicates) by use of a CFX96 cycler (BioRad) and the SensiMix SYBR Kit (Bioline, London, UK). The primers used for mRNA expression analyses are listed in Supplementary Table 1. To ensure the specificity of the amplification product, melting curves were recorded at the end of the run. mRNA expression levels were normalized to β-Actin and Gapdh. Relative mRNA expression in mESC or corresponding untreated controls was set to 1.0. Only changes in gene expression of ≤ 0.5- and ≥ 2-fold were considered as biologically relevant.
To monitor prototypical functions of endothelial cells, the uptake of fluorescent 1,1-dioctadecyl-3,3,3,3-tetra-methylindocarbocyanine-labeled acetylated LDL (Dil-acLDL) was examined. Briefly, cells were incubated with Dil-acLDL (10 µg/ml, 4 h, 37 °C). After fixation (3.7% cold formaldehyde/PBS (15 min, RT) nuclei were counterstained with DAPI. The uptake of DiI-acLDL was analyzed by fluorescence microscopy (Olympus BX43, 20x objective). Additionally, the response of differentiated EC to inflammatory cytokines was measured. After treatment with a pro-inflammatory cytokine mixture (TNFα/IL-1β, 10 ng/mL) for 1 h, mRNA expression of activated EC markers E-selectin, Icam-1, Vcam-1, Ccl2, eNos, iNos was analyzed (RT-qPCR).

[2] = test system: EC d4; experiment: Nuclear γH2AX / 53BP1 foci (DSB); details: EC d4 48 h, equitoxic concentrations
Method: (§1) DNA double-strand breaks were monitored by immunocytochemical detection of nuclear γH2AX and 53BP1 foci. Cells were fixed with 3.7% formaldehyde/PBS (15 min, RT) and permeabilized (0.3% TritonX/PBS; 15 min, RT). […] Cell suspension was mixed with 0.5% low melting point agarose and applied onto glass slides coated with 1.5% agarose. After lysis in alkaline buffer (pH 10, 1 h, 4 °C, protected from light) and DNA denaturation in precooled electrophoresis buffer (pH > 13, 25 min, 4 °C, protected from light) electrophoresis was performed (300 mA, 25 V, 4 °C, 25 min).

[3] = test system: mESC; experiment: Nuclear γH2AX / 53BP1 foci (DSB); details: mESC 24 h, equitoxic concentrations
Method: as §1

[4] = test system: EC d4; experiment: Beta-galactosidase staining (senescence); details: EC d4 48 h
Method: (§2) Beta-galactosidase activity was analyzed using the Cellular Senescence Assay Kit (Cell Biolabs, Inc., San Diego, CA, USA) according to the manufacturer’s instructions. After treatment and/or post-incubation period, the cells were fixed and stained (overnight, 37 °C). For control, untreated cells were incubated with working solution containing citrate-Na2HPO4 buffer at pH 4. The cells were analyzed by light microscopy (Axiovert 40 C, Carl Zeiss AG, 20x objective) and the fraction of beta-galactosidase positive (blue) cells was calculated (5 images per sample).

[5] = test system: EC d6; experiment: Beta-galactosidase staining (senescence); details: EC d6 24 h + 24 h post incubation
Method: as §2

[6] = test system: EC d6; experiment: ZO1 tight junction immunofluorescence; details: analysed 2 days later
[7] = test system: EC d4; experiment: VE-cadherin cell-cell junction immunostaining; details: EC d4 treated 48 h
[8] = EC d4 + 0.5 µM 48 h, analysed in EC d6
[9] = EC d4 + 0.5 µM 48 h, then + I/T (IL-1β/TNFα 10 ng/ml, 1 h)
[10] = EC d4 + 1 µM 48 h, analysed day 6, Fig 1C
[11] = EC d4 + 1 µM 48 h, analysed in EC d6
[12] = EC d4 + 1 µM 48 h, then + I/T (IL-1β/TNFα 10 ng/ml, 1 h)

## Nc1ccccc1NC(=O)c1ccc(CNC(=O)OCc2cccnc2)cc1 [EST, entinostat]
[1]; [8]
  Ccl2 mRNA: 4.20 Fold of untreated control
  Icam-1 mRNA: 6.04 Fold of untreated control
  Vcam-1 mRNA: 0.80 Fold of untreated control
  eNos mRNA: 156.02 Fold of untreated control
  iNos mRNA: 4.21 Fold of untreated control
[1]; [9]
  Ccl2 mRNA: 454.50 Fold of untreated control
  Icam-1 mRNA: 26.69 Fold of untreated control
  Vcam-1 mRNA: 1.68 Fold of untreated control
  eNos mRNA: 165.80 Fold of untreated control
  iNos mRNA: 4.06 Fold of untreated control
[1]; EC d4 + 0.5 µM 48 h
  Cdkn1a mRNA: 1.59 Fold of untreated control
  Cdkn2a mRNA: 1.29 Fold of untreated control
  Glb1 mRNA: 1.41 Fold of untreated control
  Il6 mRNA: 0.99 Fold of untreated control
  Il8 mRNA: 0.80 Fold of untreated control
  Tp53 mRNA: 1.018 Fold of untreated control
[1]; [10]
  Flk1 mRNA: 19.60 Fold of mESC
  Nanog mRNA: 0.05 Fold of mESC
  Oct4 mRNA: 0.05 Fold of mESC
  Pecam1 mRNA: 1.30 Fold of mESC
  VE-cad mRNA: 858.76 Fold of mESC
[1]; [11]
  Ccl2 mRNA: 0.90 Fold of untreated control
  Icam-1 mRNA: 5.21 Fold of untreated control
  Vcam-1 mRNA: 0.49 Fold of untreated control
  eNos mRNA: 58.94 Fold of untreated control
[1]; [12]
  Ccl2 mRNA: 132.23 Fold of untreated control
  Icam-1 mRNA: 19.80 Fold of untreated control
  Vcam-1 mRNA: 1.55 Fold of untreated control
  eNos mRNA: 53.06 Fold of untreated control
  iNos mRNA: 1.30 Fold of untreated control
[1]; EC d4 + 1 µM 48 h, Fig 5C
  Brca1 mRNA: 0.32 Fold of mESC
  Chk1 mRNA: 0.51 Fold of mESC
  Rad51 mRNA: 0.26 Fold of mESC
[1]; EC d4 + 1 µM 48 h, Fig 6D
  Pgc1a mRNA: 0.21 Fold of untreated control
[1]; EC d4 + 1 µM 48 h
  Cdkn1a mRNA: 1.62 Fold of untreated control
  Cdkn2a mRNA: 1.49 Fold of untreated control
  Glb1 mRNA: 1.61 Fold of untreated control
  Il6 mRNA: 1.09 Fold of untreated control
  Il8 mRNA: 0.57 Fold of untreated control
  Tp53 mRNA: 0.99 Fold of untreated control
[1]; EC d4 + 1 µM 48 h, Fig 8C
  Cldn5 mRNA: 0.55 Fold of EC d4 or d6
  Ocln mRNA: 1.06 Fold of EC d4 or d6
  Tjp1 mRNA: 1.56 Fold of EC d4 or d6
[1]; EC d4 + 1 µM 48 h, Fig 8F
  Ldlr mRNA: 0.66 Fold of untreated control
[2]
  DSB numbers (γH2AX / 53BP1 foci): clear increase
[3]
  nuclear γH2AX foci: significant increase
[4]
  percentage of beta-Gal-positive cells: increase
[5]
  percentage of beta-Gal-positive cells: increase
[6]
  ZO1 assembly in treated EC d6: clearly visible gaps
[7]
  VE-cadherin cell-cell junctions in EC d6 differentiated from treated EC d4: did not trigger defects
